Here are results for twelve molecules from patent publication US20250011311A1, “AMIDO HETEROAROMATIC COMPOUNDS” (AstraZeneca AB, priority 2022, published 2025).

The structures appear in SMILES notation.

In assay [1] the target is over expressed HSD17β9 in HEK293S cells (Homo sapiens (Human), UniProt Q92781). The experiment in a line: In Vitro 17bHSD9 Cell Assay. It is filed as cell-based. As to conditions: HEK293S cells over expressing HSD17β9; retinol to retinal conversion, 18 h, LC-MS/MS; read-out: 17bHSD9 Cell assay IC50. The protocol: In Vitro 17bHSD9 Cell Assay
Inhibition of 17bHSD9 was measured in a cell-based assay with over expressed HSD17β9 in HEK293S cells, measuring retinol to retinal conversion by LCMS/MS.
Cells were plated in 384 well plates (GREINER CELL culture plate 384w black/clear Poly-D-Lysine) at 10 K c/w in 30 μl of culture media (DMEM with GLUTAMAX plus 10% FBS). […] After 18 h of cell culturing for 20 μl of media was transferred using BRAVO dispensing robot (AGILENT) to a GREINER PP 384 well plate (781280) and 40 μl of 50% acetonitrile was added. Samples were analyzed using LC-MS/MS.
SCIEX LC-MS/MS system: Sample was injected with CTC analytical injector, SHIMATZU LC pumps LC20 and analysed on the SCIEX API 5000 LCMSMS system with the following settings. Samples were chromatographed on a WATERS, symmetry, C8, 3.5 μm, 2.1×50 mm) column at constant flow rate of 0.5 mL/min. The mobile phases consists of A (water with 0.2% formic acid) and B (acetonitrile with 0.2% formic acid). The LC gradient profile is as follows: 50% B during 0 to 0.1 min, a linear increase to 100% B during 0.1 to 0.8 min, hold at 100% B during 0.8 to 1.5 min then back to 50% B from 1.5 to 1.6 min and hold during run time. The run time was 2 min with retention times of approximately 1.54 and 1.62 min for Retinol and Retinal, respectively. Detection was performed on a API 5000 LC/MS/MS system with a triple quadrupole mass spectrometer, a TURBO V ion source, in multiple reaction monitoring (MRM) mode at positive polarity with ESI probe. The MRM pairs were m/z 269.3 to m/z 93.0 and m/z 285.2 to 161.0. for Retinol and Retinal, respectively. The dwell times were 100 ms for each transition and a depolarization and collision energy of 50 and 25, respectively. Data from MS signals was using area under curve (AUC). Ratio=Retinal/(Retinal+Retinol).
(§1) […] […] was used for curve fitting and calculation of IC50 values.
(§2) Compound effect was calculated with the formula below;
(§3) where X represents the effect in the presence of test compound, min is DMSO and max is the maximum inhibition of enzyme using a known inhibitor as control.

In assay [2] the target is over expressed HSD17β13 in HEK293S cells (Homo sapiens (Human), UniProt Q7Z5P4). Briefly: In Vitro 17bHSD13 Cell Assay. It is filed as cell-based. Conditions: HEK293S cells over expressing HSD17β13; estradiol to estrone conversion, 18 h, LC-MS/MS; read-out: 17bHSD1713 Cell assay IC50. The protocol: In Vitro 17bHSD13 Cell Assay
Inhibition of 17bHSD13 was measured in a cell-based assay with over expressed HSD17β13 in HEK293S cells, measuring estradiol to estrone conversion by LCMS/MS.
Samples were analyzed using LC-MS/MS.
(§4) SCIEX LC-MS/MS system: Sample was injected with CTC analytical injector, SHIMATZU LC pumps LC20 and analysed on the SCIEX API 5000 LCMSMS system with the following settings. […] The mobile phases consist of A (water with 0.2% formic acid) and B (acetonitrile with 0.2% formic acid). The LC gradient profile is as follows: 50% B during 0 to 0.5 min, a linear increase to 100% B during 0.5 to 1 min, hold at 100% B during 1 to 1.6 min then back to 50% B from 1.6 to 2 min. […] Detection was performed on a API 5000 LC/MS/MS system with a triple quadrupole mass spectrometer, a TURBO V ion source, in multiple reaction monitoring (MRM) mode at positive polarity with APCI probe. […] The dwell times were 100 ms for each transition and a depolarization and collision energy of 100 and 40, respectively. Data from MS signals was using area under curve (AUC). Ratio=Estrone/(Estrone+Estradiol)
as §1, §2, §3

Assay [3] deals with recombinant 17bHSD4 (M1-N311) (Homo sapiens (Human), UniProt P51659). The experiment in a line: In Vitro 17bHSD4 Enzyme Assay. It is filed as biochemical. As to conditions: 40 nM 17bHSD4, 0.125 mM NAD, 15 μM Estradiol, 1.5 h; NADH fluorescence; read-out: 17HSD17b4 Enzyme assay IC50. The protocol: In Vitro 17bHSD4 Enzyme Assay
10 concentration of compounds (0.2 μl) in DMSO was added to GREINER FLUOTRAC 200 384 well plate (781076) using ECHO dispensing (BECKMAN COULTER). 80 nl of 10 mM Estradiol (SIGMA, E8875) was added using Echo dispensing. The enzyme reaction was initiated by addition, using MULTIDROP COMBI dispensing (THERMO FISHER), of 40 μl of a mix containing recombinant 17bHSD4 (M1-N311) and NAD. Final assay conditions were 40 nM of 17bHSD4, 0.125 mM of NAD, 15 μM Estradiol and various concentrations of compound in buffer (5 mM EDTA (TEKNOVA E0306), 0.01% DDM (AFFYMETRIX D310) in 50 mM Tris-Cl, pH 7.4). After each addition plates were centrifuged for 1 min at 150×g (EPPENDORF, 5810R, A-4-81). NADH formation was measured by fluorescence intensity (FI) (Ex360/Em460) at time zero (to) and at 1.5 h (t1) in a PHERASTAR FSX (BMG LABTECH). FI for each sample was calculated as FI at t1 minus FI at t0.
as §1, §2, §3

The target in assay [4] is recombinant 17bHSD13 (N2-K300) (Homo sapiens (Human), UniProt Q7Z5P4). Briefly: In Vitro 17bHSD13 Enzyme Assay. It is filed as biochemical. As to conditions: 80 nM 17bHSD13, 0.5 mM NAD, 20 μM Estradiol, 2.5 h; estradiol to estrone by LC-MS/MS. The protocol: In Vitro 17bHSD13 Enzyme Assay
The enzyme reaction was initiated by addition, using CERTUS-FLEX dispenser (GYGER), of 20 μl of substrate solution containing NAD (SIGMA, N1511) and Estradiol (SIGMA, E8875). […] Final assay conditions were 80 nM of 17bHSD13, 0.5 mM of NAD, 20 μM Estradiol and various concentrations of compound in buffer (5 mM EDTA (TEKNOVA E0306), 0.01% DDM (AFFYMETRIX D310) in 50 mM Tris-Cl, pH 7.4).
as §4, with “analyzed” for “analysed”
as §1, §2, §3

Sequence of recombinant 17bHSD13 (N2-K300) (Q7Z5P4 2-300): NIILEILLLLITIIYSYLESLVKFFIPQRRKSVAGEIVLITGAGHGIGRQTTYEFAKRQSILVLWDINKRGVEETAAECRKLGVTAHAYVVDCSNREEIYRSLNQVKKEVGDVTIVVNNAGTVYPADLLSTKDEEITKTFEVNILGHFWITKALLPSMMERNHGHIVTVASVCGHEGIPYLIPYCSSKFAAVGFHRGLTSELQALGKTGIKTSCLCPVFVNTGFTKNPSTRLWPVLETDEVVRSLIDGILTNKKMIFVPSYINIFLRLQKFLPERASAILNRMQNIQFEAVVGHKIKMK
Sequence of over expressed HSD17β9 in HEK293S cells (Q92781 whole entry): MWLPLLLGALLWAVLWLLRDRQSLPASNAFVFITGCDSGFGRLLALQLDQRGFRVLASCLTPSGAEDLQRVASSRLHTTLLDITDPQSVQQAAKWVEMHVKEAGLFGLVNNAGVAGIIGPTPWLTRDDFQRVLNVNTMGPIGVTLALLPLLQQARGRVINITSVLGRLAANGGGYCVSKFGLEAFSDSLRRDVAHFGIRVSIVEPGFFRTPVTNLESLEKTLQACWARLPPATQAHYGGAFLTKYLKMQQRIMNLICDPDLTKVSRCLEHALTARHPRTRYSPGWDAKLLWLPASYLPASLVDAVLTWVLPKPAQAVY
Sequence of recombinant 17bHSD4 (M1-N311) (P51659 1-311): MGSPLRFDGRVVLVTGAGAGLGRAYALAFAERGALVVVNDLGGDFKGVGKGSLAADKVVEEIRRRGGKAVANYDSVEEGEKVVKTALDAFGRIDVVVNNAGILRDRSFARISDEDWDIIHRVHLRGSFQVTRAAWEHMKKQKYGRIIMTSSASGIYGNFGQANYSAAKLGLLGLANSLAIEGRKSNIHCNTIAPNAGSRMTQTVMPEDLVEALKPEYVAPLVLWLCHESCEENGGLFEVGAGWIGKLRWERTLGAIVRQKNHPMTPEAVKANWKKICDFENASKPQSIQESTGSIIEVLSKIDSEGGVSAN
Sequence of over expressed HSD17β13 in HEK293S cells (Q7Z5P4 20-300): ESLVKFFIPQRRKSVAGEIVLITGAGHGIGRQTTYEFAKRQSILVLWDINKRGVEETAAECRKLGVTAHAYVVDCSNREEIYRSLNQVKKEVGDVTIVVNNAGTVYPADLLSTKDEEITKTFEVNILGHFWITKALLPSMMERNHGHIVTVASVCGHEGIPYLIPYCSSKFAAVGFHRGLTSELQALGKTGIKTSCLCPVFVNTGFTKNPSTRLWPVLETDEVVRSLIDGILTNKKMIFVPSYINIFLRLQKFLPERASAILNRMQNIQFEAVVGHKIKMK

Consider `O=C(c1noc(-c2cc(F)c(F)c(O)c2F)n1)N1CCOC2(CCCC2)C1` [Example 45, (6-Oxa-9-azaspiro[4.5]decan-9-yl)(5-(2,4,5-trifluoro-3-hydroxyphenyl)-1,2,4-oxadiazol-3-yl)methanone], for which the IC50 (as a rule, the concentration that gives 50% inhibition) is 4.1 µM in assay [1], 0.51 µM in assay [2], greater than 50 µM in assay [3] and 0.466 µM in assay [4].

On to `O=C(c1noc(-c2cc(F)c(F)c(O)c2F)n1)N1CCO[C@@H](CF)C1` [Example 49, (R)-(2-(Fluoromethyl)morpholino)(5-(2,4,5-trifluoro-3-hydroxyphenyl)-1,2,4-oxadiazol-3-yl)methanone], for which the IC50 in assay [1] was greater than 50 µM; in assay [2], 0.54 µM; in assay [3] it was greater than 50 µM; in assay [4] it was 1.67 µM.

As to `C[C@@H]1CN(C(=O)c2noc(-c3cc(O)c(F)c(F)c3)n2)C[C@H](C)O1` [Example 116, (5-(3,4-Difluoro-5-hydroxyphenyl)-1,2,4-oxadiazol-3-yl)((2R,6S)-2,6-dimethylmorpholino)methanone], the half-inhibitory concentration (IC50) was greater than 50 µM in assay [1], 0.06 µM in assay [2], greater than 50 µM in assay [3] and 0.117 µM in assay [4].

Take `COc1ccc(OC2CCN(C(=O)c3noc(-c4cc(F)c(F)c(O)c4F)c3C#N)CC2)nc1` [Example 25, 3-(4-((5-Methoxypyridin-2-yl)oxy)piperidine-1-carbonyl)-5-(2,4,5-trifluoro-3-hydroxyphenyl)isoxazole-4-carbonitrile]: the IC50 in assay [1] came out at 22.7 µM; in assay [2] it was 0.82 µM; in assay [3], 24.8 µM; in assay [4] it was 0.288 µM.

For the molecule `O=C(c1noc(-c2cc(F)c(F)c(O)c2F)n1)N1CCO[C@H](C(F)(F)F)C1` [Example 46, (S)-(5-(2,4,5-Trifluoro-3-hydroxyphenyl)-1,2,4-oxadiazol-3-yl)(2-(trifluoromethyl)morpholino)methanone], the IC50 in assay [1] is 7.7 µM; in assay [2], 0.37 µM; in assay [3] it was greater than 50 µM; in assay [4] it was 0.517 µM.

Regarding `N#Cc1cccc(C2CN(C(=O)c3noc(-c4cc(F)c(F)c(O)c4F)n3)CCN2)c1` (stereo not drawn) [Example 42, 3-(4-(5-(2,4,5-Trifluoro-3-hydroxyphenyl)-1,2,4-oxadiazole-3-carbonyl)piperazin-2-yl)benzonitrile], the IC50 in assay [1] is greater than 50 µM; in assay [2] it was 10 µM; in assay [3], greater than 50 µM; in assay [4], 0.908 µM.

`COc1ccccc1N1CCN(C(=O)c2noc(-c3cc(F)c(F)c(O)c3F)n2)CC1` [Example 84, (4-(2-Methoxyphenyl)piperazin-1-yl)(5-(2,4,5-trifluoro-3-hydroxyphenyl)-1,2,4-oxadiazol-3-yl)methanone]: the IC50 in assay [1] was greater than 50 µM; in assay [2], 0.3 µM; in assay [3], 19.8 µM; in assay [4] it was 0.198 µM.

`CC[C@H]1CN(C(=O)c2noc(-c3cc(F)c(F)c(O)c3F)n2)CC(=O)N1` [Example 34, (S)-6-Ethyl-4-(5-(2,4,5-trifluoro-3-hydroxyphenyl)-1,2,4-oxadiazole-3-carbonyl)piperazin-2-one]: the IC50 in assay [1] was greater than 50 µM; in assay [2], greater than 50 µM; in assay [3], greater than 50 µM; in assay [4], 0.581 µM.

For `O=C(c1noc(-c2cc(F)c(F)c(O)c2F)n1)N1CCOC2(CCOCC2)C1` [Example 53, (1,9-Dioxa-4-azaspiro[5.5]undecan-4-yl)(5-(2,4,5-trifluoro-3-hydroxyphenyl)-1,2,4-oxadiazol-3-yl)methanone], the IC50 in assay [1] is greater than 50 µM; in assay [2], 5.61 µM; in assay [3], greater than 50 µM; in assay [4], 2.78 µM.

`O=C(c1noc(-c2cc(F)c(F)c(O)c2F)n1)N1CCCCC1` [Example 44, Piperidin-1-yl(5-(2,4,5-trifluoro-3-hydroxyphenyl)-1,2,4-oxadiazol-3-yl)methanone]: the concentration for half-maximal inhibition (IC50) in assay [1] is 11.2 µM; in assay [2], 0.19 µM; in assay [3], 38.4 µM; in assay [4], 0.432 µM.

Take `C[C@@H]1CCN(C(=O)c2noc(-c3cc(F)c(F)c(O)c3F)n2)CCO1` [Example 51, (R)-(7-Methyl-1,4-oxazepan-4-yl)(5-(2,4,5-trifluoro-3-hydroxyphenyl)-1,2,4-oxadiazol-3-yl)methanone]: the IC50 in assay [1] is greater than 50 µM; in assay [2] it was 2.69 µM; in assay [3], greater than 50 µM; in assay [4], 1.69 µM.

With `C[C@H]1CN(C(=O)c2noc(-c3cc(F)c(F)c(O)c3F)n2)C[C@H](C)O1` [Example 54, ((2S,6S)-2,6-Dimethylmorpholino)(5-(2,4,5-trifluoro-3-hydroxyphenyl)-1,2,4-oxadiazol-3-yl)methanone], the half-maximal inhibitory concentration (IC50) in assay [1] was greater than 50 µM; in assay [2] it was 0.15 µM; in assay [3] it was greater than 50 µM; in assay [4] it was 0.392 µM.
